Publication PMC8282722 (Current biology : CB, 2021)

Biological target: T1, GFP-Rab34 (LAP-Rab34) (Homo sapiens, UniProt Q9BZG1)
T1 sequence (Q9BZG1 1-259): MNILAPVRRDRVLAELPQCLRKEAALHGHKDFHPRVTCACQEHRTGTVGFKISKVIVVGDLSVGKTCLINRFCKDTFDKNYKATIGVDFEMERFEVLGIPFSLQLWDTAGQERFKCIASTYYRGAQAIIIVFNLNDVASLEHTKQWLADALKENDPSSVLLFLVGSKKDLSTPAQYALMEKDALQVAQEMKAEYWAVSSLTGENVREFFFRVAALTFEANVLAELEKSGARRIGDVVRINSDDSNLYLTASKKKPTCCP
Assay type: cell-based
Details: labelled compound; HEK293T cells; 10 mM MgCl2 in lysis buffer

- 32P metabolic labelling in cells, anti-GFP immunoprecipitation, TLC of bound nuc: wildtype Rab34 was mostly GDP-bound
SMILES: Nc1nc2c(ncn2[C@@H]2O[C@H](COP(=O)(O)OP(=O)(O)O)[C@@H](O)[C@H]2O)c(=O)[nH]1 [GDP]
